Key:
[1] = system: BT474, SKBR3, AU565 and SUM190 cells; assay: Apoptotic cell death (Annexin V FACS) in parental lapatinib-sensitive lines; format: cell-based; settings: all four parental sensitive cell lines
Procedure: FIG. 2 is a set of graphs showing the percentage of cells undergoing apoptotic cell death for each of the four cell lines and their matched resistant cell line in the presence or absence of lapatinib and/or an MDM2 inhibitor, MI-219, as measured by FACS analysis for Annexin V. Results are expressed as mean +/− SEM of Annexin V positive cells.
BT474, SKBR3, and AU565 cells were obtained from ATCC. SUM190 cells were obtained from Asterand, Inc. All cell lines were cultured in RPMI medium containing 10% fetal bovine serum (FBS). Lapatinib-resistant cells (rBT474, rSKBR3, rAU565, and rSUM190) were established as previously described^14. Cobleigh, et al. J. Clin. Oncol. 17, 2639-2648 (1999). Lapatinib-resistant cells were grown in the presence of 1 μM lapatinib unless otherwise stated.

Erk1/2 = assay: Immunoblot of phospho-Erk1/2 in lapatinib-treated cells; format: cell-based; settings: sensitive and resistant cells, 1 μM lapatinib, 50 μM z-VAD
Mcl-1 = assay: Immunoblot of Mcl-1 protein levels; format: cell-based; settings: 1 μM lapatinib
Procedure: FIG. 3 is a set of photographs showing that Mcl-1 is stabilized in lapatinib-resistant cells. […] FIG. 3B is a set of immunoblots showing the levels of HER2 and phospho-HER2 in untreated cells and cells treated with lapatinib. Cells were treated with or without lapatinib (1 μM) for 24 hours in the presence of the caspase inhibitor z-VAD (50 μM). The cells were harvested and cell lysates were immunoblotted using antibodies against phospho-HER2 (Y877) and total HER2. FIG. 3C is an immunoblot for phospho-AKT (T308) and total AKT. BT474 and rBT474 cells were treated with 1 μM lapatinib in the presence of 50 μM z-VAD. At the indicated time points, the cells were harvested and immunoblotted. FIG. 3D is an immunoblot for phospho-Erl1/2(T202/Y204) and total Erk1/2. BT474 and rBT474 cells were treated with 1 μM lapatinib in the presence of 50 μM z-VAD. At the indicated time points, the cells were harvested and immunoblotted. FIG. 3E is an immunoblot for Mcl-1, Bim, and Actin. BT474 and rBT474 cells (left) or SKBR3 and rSKBR3 cells (right) were treated with 1 μM lapatinib. The cells were harvested at the indicated time points and immunoblotted. FIG. 3F is an autoradiograph showing the ^35[S] radioactivity in lysates containing ^35[S]-Mcl-1 at the indicated time points. ^35[S]-labeled Mcl-1 protein was incubated in cell-free lysates prepared from BT474 and rBT474 cells (top) or SKBR3 and rSKBR3 cells (bottom). FIG. 3G is an autograph showing the ^35[S]-labeled Mcl-1 to monitor Mcl-1 stability over time. The ^35[S]-labeled Mcl-1 was incubated in lysates prepared from rBT474 cells treated with or without 1 μM lapatinib. FIG. 3H is an immunoblot for HA. SKBR3 or rSKBR3 cells were co-transfected with FLAG-Mcl-1 and HA-Ubiquitin (Ub). […] Cells were harvested after treatment with 10 μM MG 132 for 4 hours. FLAG-Mcl-1 was retrieved by immunoprecipitation using anti-flag agarose, and Mcl-1 ubiquitylation was analyzed by immunoblotting for HA (*non-specific band, **IgG heavy chain).

CAS = assay: Immunoblot of CAS protein levels; format: cell-based
Procedure: FIG. 11 is a set of photographs of immunoblots showing CAS degradation in lapatinib-resistant cells. FIG. 11A is an immunoblot for CAS and Actin. BT474 and rBT474 (left) or AU565 and rAU565 cells (right) cultured in the absence of lapatinib for one week were treated with 1 μM lapatinib and the cells were harvested at various time points. FIG. 11B is an immmunoblot for CAS and Actin. rBT474 cells were maintained in the presence of […] lapatinib and the cells were harvested at various time points following removal of lapatinib. FIG. 11C is an immunoblot for FLAG and actin. BT474 and rBT474 cells were transiently transfected with FLAG-tagged CAS and subsequently treated with 50 μg/ml cycloheximide (CHX) and 1 μM lapatinib and the cells were harvested at various time points. FIG. 11D is an immunoblot using HA to analyze ubiquitination of CAS. BT474 and rBT474 (left) or SKBR3 and rSKBR3 cells (right) were co-transfected with FLAG-CAS and HA-Ub. […] After treatment with 10 μM MG 132 for 8 hours, cells were harvested and FLAG-CAS was retrieved by immunoprecipitation. FIG. 11E is an immunoblot for FLAG-tagged proteins retrieved by immunoprecipitation and association with MDM2. H1299 cells were transfected with empty vector, FLAG-CAS^W127A, or FLAG-CAS wild type. FIG. 11F is an immunoblot for CAs after immunoprecipitation for FLAG. H1299 cells were transfected with empty vector, FLAG-CAS^W127A, or FLAG-CAS wild type. Cells were treated with 10 μM MG132 for 3 hours. […] SKBR3 cells were transfected with increasing amounts of MDM2. After 48 hours, cells were harvested and immunoblotted (*non-specific band). FIG. 11H is an immunoblot for CAS. […] FIG. 11I is an immunoblot for MDM2 or CAs after immunoprecipitation with FLAG. BT474 and rBT474 cells were transfected with FLAG-CAS. […] After treatment with 10 μM MG132 for 5 hours, FLAG-CAS was retrieved by immunoprecipitation and association of endogenous MDM2 was analyzed by immunoblotting.

CAS-MDM2 interaction = biological target: T1, CAS-MDM2 interaction (Homo sapiens, UniProt Q00987); assay: CAS-MDM2 co-immunoprecipitation; format: cell-based; settings: 1 μM lapatinib, 24 hours
T1 construct: association of endogenous MDM2 was analyzed by immunoblotting; expressed in transfected cells; host or cells: BT474 and rBT474 cells transfected with FLAG-CAS; MDM2 endogenous
T1 sequence (Q00987 whole entry): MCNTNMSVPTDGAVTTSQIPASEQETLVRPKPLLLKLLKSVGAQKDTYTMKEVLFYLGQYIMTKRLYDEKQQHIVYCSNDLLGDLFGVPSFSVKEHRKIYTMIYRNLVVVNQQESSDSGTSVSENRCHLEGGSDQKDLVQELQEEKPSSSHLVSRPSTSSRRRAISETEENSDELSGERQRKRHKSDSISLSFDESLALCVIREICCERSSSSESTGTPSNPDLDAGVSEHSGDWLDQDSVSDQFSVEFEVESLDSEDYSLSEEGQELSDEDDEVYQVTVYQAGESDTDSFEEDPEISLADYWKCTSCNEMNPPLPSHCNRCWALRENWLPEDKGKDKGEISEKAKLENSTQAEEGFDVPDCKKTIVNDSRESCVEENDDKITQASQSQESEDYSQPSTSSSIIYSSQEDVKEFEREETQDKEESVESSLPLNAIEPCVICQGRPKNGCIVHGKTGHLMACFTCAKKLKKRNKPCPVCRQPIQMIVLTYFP
Procedure: BT474 and rBT474 (left) or AU565 and rAU565 cells (right) cultured in the absence of lapatinib for one week were treated with 1 μM lapatinib and the cells were harvested at various time points. FIG. 11B is an immmunoblot for CAS and Actin. rBT474 cells were maintained in the presence of 1 M lapatinib and the cells were harvested at various time points following removal of lapatinib. […] BT474 and rBT474 cells were transiently transfected with FLAG-tagged CAS and subsequently treated with 50 μg/ml cycloheximide (CHX) and 1 μM lapatinib and the cells were harvested at various time points. […] BT474 and rBT474 (left) or SKBR3 and rSKBR3 cells (right) were co-transfected with FLAG-CAS and HA-Ub. Cells were treated with 1 μM lapatinib for 24 hours in the presence of z-VAD. […] FIG. 11E is an immunoblot for FLAG-tagged proteins retrieved by immunoprecipitation and association with MDM2. […] FIG. 11F is an immunoblot for CAs after immunoprecipitation for FLAG. […] Cells were treated with 10 μM MG132 for 3 hours. […] FIG. 11I is an immunoblot for MDM2 or CAs after immunoprecipitation with FLAG. BT474 and rBT474 cells were transfected with FLAG-CAS. Cells were treated with 1 μM lapatinib for 24 hours in the presence of z-VAD. After treatment with 10 μM MG132 for 5 hours, FLAG-CAS was retrieved by immunoprecipitation and association of endogenous MDM2 was analyzed by immunoblotting. […]

MDM2 = assay: Immunoblot of MDM2 protein levels; format: cell-based; settings: 1 μM lapatinib
Procedure: Cells treated with 1 μM lapatinib were harvested at various time points and immunoblotted. […] BT474 and rBT474 cells were transiently transfected with HA-tagged Huwe1 and subsequently treated with 50 μg/ml cycloheximide (CHX) and 1 μM lapatinib. […] Immunoprecipitation was carried out using H1299 cell lysates and anti-Huwe1 antibody (or control IgG). […] BT474 cells were transfected with HA-tagged Huwe1 encoding the full-length protein, residues 1-2474, or residues 2473-4374. […] BT474 cells were transfected with increasing amounts of MDM2 and harvested after 48 hours. […] SUM190 cells were transfected with Scrambled or MDM2-specific siRNA (100 nM) and harvested after 72 hours. […] Ubiquitylation of Huwe1 was reconstituted in vitro by incubating recombinant Huwe1 protein (Huwe1^1-2474) with E1, UbcH5 (E2), ubiquitin (Ub), and recombinant MDM2 protein in reaction buffer at 37° C. for 3 hours. […] Twenty-four hours later, the cells were replated and further transfected with HA-tagged Huwe1 (wild type). Forty-eight hours after siRNA transfection, the cells were treated with 1 μM lapatinib. After 24 hours of lapatinib treatment, 50 μg/ml cycloheximide (CHX) was added to the culture medium and cells were harvested at various time points for immunoblotting.

rBT474 xenografts = assay: rBT474 mammary fat pad xenograft; settings: 100 mg/kg each drug, twice daily by oral gavage
Procedure: Forty-eight hours after siRNA transfection, cells were treated with 1 μM lapatinib for 48 hours, and cells were harvested and subjected to Annexin V staining. The percentage of Annexin V-positive cells was analyzed by FACS. Results are expressed as a mean percentage±SEM and analyzed by t-test (*P<0.05). […] The oral administration of lapatinib (100 mg/kg, twice daily by oral gavage) began when the average tumor volume surpassed 300 mm^3. Results are expressed as a mean percentage±SEM. […] After 36 hours, cells were harvested and immunoblotted. […] BT474 and rBT474 cells were injected into the mammary fad pad of each mouse. When tumors developed to a size of 200 mm^3, the mice were randomly assigned to receive vehicle, lapatinib (100 mg/kg), Nutlin-3 (100 mg/kg), or Lapatinib+Nutlin-3 and treated twice daily by oral gavage. Results are expressed as a mean percentage±SEM. […] Percentage of apoptotic cell death was measured by FACS analysis using Annexin V. Results are expressed as a mean percentage±SEM of Annexin V-positive cells (*P<0.05 by t-test).
Six week-old female nude mice were purchased from NCI Frederic. Xenograft tumors were produced by injection into the mammary fat pad with cells (10×10^6). Tumor volumes were calculated every 3-4 days based on caliper measurements of the short (a) and long (b) tumor diameters (volume=a2b/2). […]

[2] = system: mitochondrial cytochrome c release; assay: Western blot for cytochrome c in cytosolic lysates lacking mitochondria; settings: 1 μM lapatinib, 24 hours

`CS(=O)(=O)CCNCc1ccc(-c2ccc3ncnc(Nc4ccc(OCc5cccc(F)c5)c(Cl)c4)c3c2)o1` [lapatinib] was tested, and the “apoptotic cell death in response to lapatinib” value [1] was “died from apoptosis”, the “phosphorylation of Erk1/2” value (Erk1/2) was “attenuated” and the Mcl-1 protein levels (Mcl-1; resistant cells) was “increased”. The Mcl-1 protein levels (Mcl-1; sensitive cells) was “decreased”, the CAS protein levels (CAS; low-HER2 lines non-responsive to lapatinib (e.g., T47D cells)) was “did not alter” and the CAS protein levels (CAS; parental cells, 1 μM lapatinib) was “did not affect”. The CAS protein levels (CAS; resistant cells, 1 μM lapatinib) was “declined over time”, the CAS-MDM2 interaction (CAS-MDM2 interaction; BT474 cells) was “decreased” and the CAS-MDM2 interaction (CAS-MDM2 interaction; rBT474 cells) was “enhanced”. For the same compound, the MDM2 levels (MDM2; parental cells) was “rapidly decreased”, the MDM2 levels (MDM2; resistant cells) was “maintained” and the rBT474-derived tumor growth (rBT474 xenografts) was “Neither lapatinib nor Nutlin-3 inhibited”. The “mitochondrial cytochrome c release” value ([2]; parental BT474 cells) was “induced mitochondrial cytochrome c release in parental BT474 cells” and the “mitochondrial cytochrome c release” value ([2]; rBT474 cells) was “not rBT474 cells”.

— patent US9937178B2, “Methods of identifying and using MDM2 inhibitors” (DUKE UNIVERSITY, priority 2011, dated 2018)
